# From patent US20260168988A1, “GENETICALLY ENCODED REPORTER EXPRESSION SYSTEMS AND METHODS OF MAKING AND USING SAME” (Duke University, priority 2021, published 2026)
# “Also recorded” adds a separate entry of the source.
# Key:
# Format in all cases: cell-based
# [1] = tested on: NMD; assay: m6A reporter mRNA levels after blocking nonsense-mediated decay (RT-qPCR); settings: HEK293T cells expressing the m6A sensor system, CHX for 24 h
# Protocol: HEK293T cells expressing the m6A sensor system were treated with CHX for 24 h to inhibit NMD, followed by RT-qPCR of the m^6A reporter mRNA.
# The possibility that the m^6A reporter mRNA could be susceptible to nonsense-mediated decay (NMD), since editing of the m6A reporter mRNA produces premature stop codons, was investigated. However, this is unlikely since most NMD requires the presence of the exon junction complex (EJC), and the m^6A reporter transcript lacks introns.
# [2] = tested on: METTL3; assay: m6A sensor system in METTL3 degron cells treated with auxin; settings: METTL3 degron HEK293T cells, auxin 48 hours, compared to DMSO-treated cells
# Protocol: To confirm that the m^6A sensor is METTL3-dependent, the m^6A sensor system was expressed in HEK293T cells which contain an auxin-inducible degradation tag at the endogenous METTL3 locus (METTL3 degron cells). Cells were treated with auxin for 48 hours and then transfected with the m^6A sensor system. […] Conversely, overexpression of METTL3 causes increased GFP fluorescence, a higher GFP:GFP-DHFR ratio, and increased C-to-U editing of the sensor sequence (FIGS. 5A-5C).
# [3] = target: T1, METTL3 (Homo sapiens, UniProt Q86U44); assay: m6A sensor system in HEK293T cells treated with METTL3 inhibitor; settings: HEK293T cells expressing the m6A sensor system, after treatment
# T1 construct: endogenous in cells; host or cells: HEK293T
# [4] = tested on: APO1-YTH; assay: Inducible APO1-YTH expression in HEK293T stable m6A reporter cell lines; settings: time courses of dox induction
# Source text: HEK293T stable cells were generated which express both the m^6A reporter and APO1-YTH. The m^6A reporter was constitutively expressed from the CMV reporter, while APO1-YTH was inducibly expressed after treatment of cells with doxycycline (dox).
# Cyclophilin A (CycloA) is shown as a loading control.
# Another embodiment of the present disclosure provides stable cell lines that express the m^6A reporter system as provided herein. To do this, stable cell lines expressing both the m^6A reporter and APO1-YTH were generated by transfecting HEK293T cells with a dual-promoter plasmid encoding both components of the reporter system. This plasmid drives m^6A reporter expression from the CMV promoter and APO1-YTH expression using an inducible […] promoter. However, any dual-promoter system could also be used and different promoters (inducible and constitutive) could also be used with this m^6A reporter system. The m^6A reporter system provided herein may also be applied in other mammalian and non-mammalian cell types as well.
# Following selection of stable cells with puromycin resistance which was conferred by genomic integration of the plasmid, it was next sought to confirm that the reporter system works in the context of stable integration of the m^6A reporter and APO1-YTH components. […]
# T1 sequence (Q86U44 2-580 limits assumed): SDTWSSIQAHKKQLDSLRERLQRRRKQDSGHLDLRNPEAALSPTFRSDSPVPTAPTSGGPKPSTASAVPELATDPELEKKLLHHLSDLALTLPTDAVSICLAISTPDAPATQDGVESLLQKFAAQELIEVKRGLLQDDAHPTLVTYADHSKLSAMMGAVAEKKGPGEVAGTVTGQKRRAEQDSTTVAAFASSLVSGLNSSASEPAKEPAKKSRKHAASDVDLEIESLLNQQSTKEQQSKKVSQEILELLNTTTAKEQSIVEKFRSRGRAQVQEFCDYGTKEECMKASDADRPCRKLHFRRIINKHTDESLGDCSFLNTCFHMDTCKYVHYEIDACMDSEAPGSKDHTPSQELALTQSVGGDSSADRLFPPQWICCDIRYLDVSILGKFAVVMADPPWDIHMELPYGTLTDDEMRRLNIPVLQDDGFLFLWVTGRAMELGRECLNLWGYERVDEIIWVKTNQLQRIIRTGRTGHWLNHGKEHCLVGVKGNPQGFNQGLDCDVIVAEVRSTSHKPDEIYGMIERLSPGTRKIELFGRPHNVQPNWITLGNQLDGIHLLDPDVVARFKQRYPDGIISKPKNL
# T1 sequence (Q9HCE5 whole entry partner): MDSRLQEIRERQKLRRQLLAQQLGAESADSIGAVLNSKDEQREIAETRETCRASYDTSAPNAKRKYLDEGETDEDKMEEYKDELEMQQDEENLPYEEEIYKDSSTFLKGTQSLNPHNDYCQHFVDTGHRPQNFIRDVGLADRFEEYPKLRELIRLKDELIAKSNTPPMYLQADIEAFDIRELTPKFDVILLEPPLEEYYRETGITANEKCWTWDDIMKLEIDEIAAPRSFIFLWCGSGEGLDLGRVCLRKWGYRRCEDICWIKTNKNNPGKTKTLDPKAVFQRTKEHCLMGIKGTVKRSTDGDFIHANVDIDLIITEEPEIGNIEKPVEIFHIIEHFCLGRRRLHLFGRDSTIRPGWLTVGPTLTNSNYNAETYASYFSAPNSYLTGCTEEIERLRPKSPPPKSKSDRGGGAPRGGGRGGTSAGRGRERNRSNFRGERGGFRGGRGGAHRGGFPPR
compound,measurement,setting,value
C[C@@H]1C[C@@H]([C@H](O)CC2CC(=O)NC(=O)C2)C(=O)[C@@H](C)C1 [cycloheximide],levels of the m6A reporter mRNA (RT-qPCR),[1],did not cause changes
O=C(O)Cc1c[nH]c2ccccc12 [auxin],C-to-U editing of the m6A sensor sequence (RT-PCR/Sanger sequencing),[2],decreased C-to-U editing
same,GFP:GFP-DHFR ratio (western blot),[2],reduced GFP:GFP-DHFR ratio
same,C-to-U editing of the m6A sensor sequence (RT-PCR/Sanger sequencing),[2]; listed as Auxin,reduced C-to-U editing
same,GFP fluorescence of m6A sensor,"[2]; then transfected, assessed 24 hours later",greatly diminished; also recorded: reduced m^6A sensor fluorescence
STM2457,C-to-U editing of the m6A sensor sequence (RT-PCR/Sanger sequencing),[3],lower levels of C-to-U editing; also recorded: reduced C-to-U editing
same,GFP fluorescence of m6A sensor system,[3],reduces GFP fluorescence
same,GFP protein (Western blot),[3],reduced GFP protein; also recorded: reduction of GFP expression
C[C@H]1c2cccc(O)c2C(=O)C2=C(O)[C@]3(O)C(=O)C(C(N)=O)=C(O)[C@@H](N(C)C)[C@@H]3[C@@H](O)[C@@H]21 [doxycycline],duration of dox treatment sufficient for APO1-YTH induction and EGFP fluorescence,[4],24 h
